In ChEMBL document CHEMBL4321844, “Rational Design and Optimization of a Novel Class of Macrocyclic Apoptosis Signal-Regulating Kinase 1 Inhibitors” (J Med Chem, 2019):

Experiment: Unbound brain to plasma concentration ratio, Kp of the compound in rat at 1 mg/kg, iv for 4 hrs by LC-MS/MS analysis
Type: ADME, organism-based
Details: brain and plasma, read-out: K(p,uu,brain)

Row | Kp uu at 4 h | SMILES
1 | 1 | CN(C)CCn1cc(-c2ccc3c(c2)C(=O)Nc2cccc(n2)-c2nncn2CCCCO3)cn1
2 | 0.17 | C[C@@H]1CCOc2cc(F)ccc2C(=O)Nc2cccc(n2)-c2nncn2C1
3 | 0.09 | C[C@H]1CCCOc2cc(F)ccc2C(=O)Nc2cccc(n2)-c2nncn21
4 | < 0.1 | Cc1cn(-c2ccc3c(c2)C(=O)Nc2cccc(n2)-c2nncn2CCCCO3)cn1
5 | < 0.1 | C[C@@H]1CCOc2cc(F)c(-c3cnn(CCN(C)C)c3)cc2C(=O)Nc2cccc(n2)-c2nncn2C1
